# Measured values: patent publication EP0818453B1, “Benzothiophene compounds and methods of use” (ELI LILLY AND COMPANY, priority 1996, dated 1998)
# Marks after values point to notes of the source that are not given here.
# Test system: ovariectomized rats
# Experiment: Ovariectomized rat model of postmenopausal hyperlipidemia (serum cholesterol, uterine weight, uterine eosinophil peroxidase)
# Type: in vivo
# Conditions: for Serum Cholest. % Dec.: decrease versus ovariectomized controls; for Uterine Eosinophil (Vmax): eosinophil peroxidase, Vmaximum; for Uterine Weight % Inc: increase versus ovariectomized controls
# Description: Experimental models of postmenopausal hyperlipidemia are known in the art. Germane to this invention is the ovariectomized rat model which is detailed in U.S. 5,464,845.
# Data presented in Table 1 show comparative results among ovariectomized rats, rats treated with 17-a-ethynyl estradiol(EE2), and rats treated with certain compounds of this invention. […] This uterine response to estrogen is well recognized in the art.
# As expressed in the data below, estrogenicity also was assessed by evaluating the response of eosinophil infiltration into the uterus.
# The data presented in Table 1 reflect the response per treatment group.
SMILES,Serum Cholest. % Dec. (0.001 mg/kg PO),Serum Cholest. % Dec. (0.01 mg/kg PO),Serum Cholest. % Dec. (0.1 mg/kg PO),Serum Cholest. % Dec. (1.0 mg/kg PO),Serum Cholest. % Dec. (10.0 mg/kg PO),Uterine Eosinophil (Vmax) (0.001 mg/kg PO),Uterine Weight % Inc (0.001 mg/kg PO),Uterine Eosinophil (Vmax) (0.01 mg/kg PO),Uterine Weight % Inc (0.01 mg/kg PO),Uterine Eosinophil (Vmax) (0.1 mg/kg PO),Uterine Weight % Inc (0.1 mg/kg PO),"uterine weight (0.1 mg/kg/day orally, versus ovariectomized animals, result in words)","serum cholesterol (orally administered at 0.1 mg/kg/day, result in words)","eosinophil infiltration into the uterus (stromal layer of ovariectomized rat uteri, result in words)"
C[C@]12CC[C@@H]3c4ccc(O)cc4CC[C@H]3[C@@H]1CC[C@@H]2O [17-b-Estradiol],67.6* %,57.5* %,58.7* %,–,–,–,–,–,–,–,–,–,–,–
"Cl.O=C(c1ccc(-c2ccc(OCCN3CCCCC3)cc2)cc1)c1c(-c2ccc(O)cc2)sc2cc(O)ccc12 [Compound 5, [2-(4-Hydroxyphenyl)-6-hydroxybenzo[b]thien-3-yl] [4'-[2-(1-piperidinyl)ethoxy]biphenyl-4-yl]methanone hydrochloride]",–,15.9* %,66.7* %,87.3* %,–,–,–,–,–,–,–,–,–,–
"O=C(c1ccc2cc(OCCN3CCCCC3)ccc2c1)c1c(-c2ccc(O)cc2)sc2cc(O)ccc12 [Compound 10, [2-(4-Hydroxyphenyl)-6-hydroxybenzo[b]thien-3-yl][6-[2-(1-piperidinyl)ethoxy]naphth-2-yl]methanone]",–,–,39.4* %,59.3* %,69.1* %,–,–,–,–,–,–,–,–,–
"C#C[C@]1(O)CC[C@H]2[C@@H]3CCc4cc(O)ccc4[C@H]3CC[C@@]21C [EE2, 17-a-ethynyl estradiol]",-1.9%,12%,77.7* %,–,–,20*,35.8* %,25.6*,61.0* %,276.6*,129.6* %,substantially greater than the uterine weight of the ovariectomized animals,caused a decrease in serum cholesterol,substantial and expected increase in eosinophil infiltration
